From PubChem BioAssay AID1745844 (Carcinogenic Potency Database (CPDB), 2022)
Values joined by “and” are separate entries in the source; they are usually repeats but may differ in a detail not shown here. Equal values may be shown once. Active and inactive are the calls of the source. The rule behind the calls is not given here.

System: rodent lifetime carcinogenesis bioassay, tumor incidence TD50
Experiment: carcinogenic potency in animals, long-term in vivo studies, CPDB compilation (AID 1745844)

CNNC
TD50 (hamster, strain Syrian Golden, females, in drinking water, site: blood vessels, lesion: angiosarcoma, dosed 67 weeks, study length 67 weeks): 0.156 mg/kg/day
TD50 (hamster, strain Syrian Golden, females, in drinking water, site: cecum, lesion: adenocarcinoma, dosed 67 weeks, study length 67 weeks): 2.84 mg/kg/day
TD50 (hamster, strain Syrian Golden, females, in drinking water, site: cecum, lesion: polypoid adenoma, dosed 67 weeks, study length 67 weeks): 2.08 mg/kg/day
TD50 (hamster, strain Syrian Golden, females, in drinking water, site: cecum, lesion: several types, types named in the paper, dosed 67 weeks, study length 67 weeks): 0.864 mg/kg/day
TD50 (hamster, strain Syrian Golden, females, in drinking water, site: heart, lesion: angiosarcoma, dosed 67 weeks, study length 67 weeks): 2.13 mg/kg/day
TD50 (hamster, strain Syrian Golden, females, in drinking water, site: liver, lesion: angiosarcoma, dosed 67 weeks, study length 67 weeks): 0.156 mg/kg/day
TD50 (hamster, strain Syrian Golden, females, in drinking water, site: liver, lesion: hepatoma, dosed 67 weeks, study length 67 weeks): 1.4 mg/kg/day
TD50 (hamster, strain Syrian Golden, females, in drinking water, site: liver, lesion: several types, types named in the paper, dosed 67 weeks, study length 67 weeks): 0.917 mg/kg/day
TD50 (hamster, strain Syrian Golden, females, in drinking water, site: lung, lesion: angiosarcoma, dosed 67 weeks, study length 67 weeks): 0.395 mg/kg/day
TD50 (hamster, strain Syrian Golden, females, in drinking water, site: muscle, lesion: angiosarcoma, dosed 67 weeks, study length 67 weeks): 1.03 mg/kg/day
TD50 (hamster, strain Syrian Golden, females, in drinking water, site: pancreas, lesion: angiosarcoma, dosed 67 weeks, study length 67 weeks): 18.4 mg/kg/day
TD50 (hamster, strain Syrian Golden, males, in drinking water, site: blood vessels, lesion: angiosarcoma, dosed 71 weeks, study length 71 weeks): 0.211 mg/kg/day
TD50 (hamster, strain Syrian Golden, males, in drinking water, site: cecum, lesion: polypoid adenoma, dosed 71 weeks, study length 71 weeks): 2.42 mg/kg/day
TD50 (hamster, strain Syrian Golden, males, in drinking water, site: heart, lesion: angiosarcoma, dosed 71 weeks, study length 71 weeks): 2.49 mg/kg/day
TD50 (hamster, strain Syrian Golden, males, in drinking water, site: liver, lesion: angiosarcoma, dosed 71 weeks, study length 71 weeks): 0.211 mg/kg/day
TD50 (hamster, strain Syrian Golden, males, in drinking water, site: liver, lesion: several types, types named in the paper, dosed 71 weeks, study length 71 weeks): 2.05 mg/kg/day
TD50 (hamster, strain Syrian Golden, males, in drinking water, site: lung, lesion: angiosarcoma, dosed 71 weeks, study length 71 weeks): 0.685 mg/kg/day
TD50 (hamster, strain Syrian Golden, males, in drinking water, site: muscle, lesion: angiosarcoma, dosed 71 weeks, study length 71 weeks): 1.36 mg/kg/day
TD50 (hamster, strain Syrian Golden, males, in drinking water, site: pancreas, lesion: angiosarcoma, dosed 71 weeks, study length 71 weeks): 18.6 mg/kg/day
carcinogen call (mouse, strain Swiss albino, females, in drinking water, site: blood vessels, lesion: angiosarcoma, dosed 52 weeks, study length 52 weeks): positive
TD50 (mouse, strain Swiss albino, females, in drinking water, site: liver, lesion: hepatoma, dosed 52 weeks, study length 52 weeks): 13.9 mg/kg/day
TD50 (mouse, strain Swiss albino, females, in drinking water, site: lung, lesion: adenoma, dosed 52 weeks, study length 52 weeks): 0.559 mg/kg/day
TD50 (mouse, strain Swiss albino, males, in drinking water, site: blood vessels, lesion: angiosarcoma, dosed 52 weeks, study length 52 weeks): 0.102 mg/kg/day
TD50 (mouse, strain Swiss albino, males, in drinking water, site: fat, lesion: angiosarcoma, dosed 52 weeks, study length 52 weeks): 0.215 mg/kg/day
TD50 (mouse, strain Swiss albino, males, in drinking water, site: liver, lesion: angiosarcoma, dosed 52 weeks, study length 52 weeks): 0.377 mg/kg/day
TD50 (mouse, strain Swiss albino, males, in drinking water, site: lung, lesion: several types, types named in the paper, dosed 52 weeks, study length 52 weeks): 1.81 mg/kg/day
TD50 (mouse, strain Swiss albino, males, in drinking water, site: lymph node, lesion: angiosarcoma, dosed 52 weeks, study length 52 weeks): 1.02 mg/kg/day
TD50 (mouse, strain Swiss albino, males, in drinking water, site: muscle, lesion: angiosarcoma, dosed 52 weeks, study length 52 weeks): 0.203 mg/kg/day
TD50 (mouse, strain Swiss albino, males, in drinking water, site: paraepididymal tissue, lesion: angiosarcoma, dosed 52 weeks, study length 52 weeks): 0.337 mg/kg/day
TD50 (mouse, strain Swiss albino, males, in drinking water, site: pararenal tissue, lesion: angiosarcoma, dosed 52 weeks, study length 52 weeks): 0.18 mg/kg/day
TD50 (mouse, strain Swiss albino, males, in drinking water, site: subcutaneous tissue, lesion: angiosarcoma, dosed 52 weeks, study length 52 weeks): 0.781 mg/kg/day

O=C1NC(c2ccc([N+](=O)[O-])s2)Nc2ccccc21 (stereo not drawn)
TD50 (rat, strain Sprague-Dawley, females, in feed, site: any site (literature study), lesion: several types, types named in the paper, dosed 46 weeks, study length 66 weeks): 1.53 mg/kg/day
TD50 (rat, strain Sprague-Dawley, females, in feed, site: mammary gland, lesion: adenocarcinoma, dosed 46 weeks, study length 66 weeks): 13.3 mg/kg/day

CC1(C)O[C@@H]2C[C@H]3[C@@H]4CCC5=CC(=O)C=C[C@]5(C)[C@@]4(F)[C@@H](O)C[C@]3(C)[C@]2(C(=O)CO)O1
TD50 (rat, strain Charles River CD (Sprague-Dawley), males, in drinking water, site: liver, lesion: hepatocellular adenoma, dosed 104 weeks, study length 104 weeks): 0.0917 mg/kg/day
TD50 (rat, strain Charles River CD (Sprague-Dawley), males, in drinking water, site: liver, lesion: hepatocellular carcinoma, dosed 104 weeks, study length 104 weeks): 0.141 mg/kg/day
TD50 (rat, strain Charles River CD (Sprague-Dawley), males, in drinking water, site: liver, lesion: several types, types named in the paper, dosed 104 weeks, study length 104 weeks): 0.053 mg/kg/day

C/C=C1/C[C@@H](C)[C@@](C)(O)C(=O)OC/C2=C/CN(C)CC[C@@H](OC1=O)C2=O
TD50 (rat, strain ACI, males, i.p., site: liver, lesion: liver-cell adenoma, dosed 56 weeks, study length 92 weeks): 1.7 mg/kg/day

ClC/C=C/CCl
TD50 (mouse, strain Ha/ICR, females, i.p., site: abdomen, lesion: sarcoma, dosed 76 weeks, study length 76 weeks): 1.52 mg/kg/day

CC(O)CO (stereo not drawn)
carcinogen call (rat, strain Charles River CD (Sprague-Dawley), females, in feed, site: liver, lesion: nodular hyperplasia, dosed 104 weeks, study length 104 weeks): negative (inactive)
carcinogen call (rat, strain Charles River CD (Sprague-Dawley), males, in feed, site: liver, lesion: nodular hyperplasia, dosed 104 weeks, study length 104 weeks): negative (inactive)

CSCCC(N)C(=O)O (stereo not drawn)
TD50 (mouse, strain C3H/HeN, males, in feed, site: liver, lesion: hepatocellular adenoma, dosed 52 weeks, study length 52 weeks): 4160 mg/kg/day
TD50 (mouse, strain C3H/HeN, males, in feed, site: liver, lesion: hepatocellular carcinoma, dosed 52 weeks, study length 52 weeks): 4470 mg/kg/day
TD50 (mouse, strain C3H/HeN, males, in feed, site: liver, lesion: several types, types named in the paper, dosed 52 weeks, study length 52 weeks): 2000 mg/kg/day
carcinogen call (rat, strain Fischer 344, males, in feed, site: liver, lesion: neoplastic nodule, dosed 72 weeks, study length 103 weeks): negative (inactive)

S=c1nc[nH]c2nc[nH]c12
TD50 (rat, strain BR 46, males, i.v., site: any site (literature study), lesion: several types, types named in the paper, dosed 52 weeks, study length 104 weeks): 58.1 mg/kg/day (inactive)
TD50 (rat, strain F344/DuCrj, females, in feed, site: adrenal gland, lesion: pheochromocytoma, dosed 104 weeks, study length 113 weeks): 22.5 mg/kg/day
TD50 (rat, strain F344/DuCrj, females, in feed, site: any site (literature study), lesion: malignant tumor, dosed 104 weeks, study length 113 weeks): 10.3 mg/kg/day
TD50 (rat, strain F344/DuCrj, females, in feed, site: any site (literature study), lesion: several types, types named in the paper, dosed 104 weeks, study length 113 weeks): 4.74 mg/kg/day
TD50 (rat, strain F344/DuCrj, females, in feed, site: central nervous system, lesion: several types, types named in the paper, dosed 104 weeks, study length 113 weeks): 34.1 mg/kg/day
TD50 (rat, strain F344/DuCrj, females, in feed, site: liver, lesion: hepatocellular carcinoma, dosed 104 weeks, study length 113 weeks): 139 mg/kg/day
TD50 (rat, strain F344/DuCrj, females, in feed, site: uterus, lesion: adenocarcinoma, dosed 104 weeks, study length 113 weeks): 34.1 mg/kg/day

Clc1ccc(C(c2ccccc2Cl)C(Cl)Cl)cc1 (stereo not drawn)
TD50 (mouse, strain B6AKF1, females, oral dosing, site: any site (literature study), lesion: several types, types named in the paper, dosed 76 weeks, study length 76 weeks): 102 mg/kg/day
TD50 (mouse, strain B6AKF1, females, oral dosing, site: lung, lesion: adenoma, dosed 76 weeks, study length 76 weeks): 236 mg/kg/day
TD50 (mouse, strain B6AKF1, males, oral dosing, site: any site (literature study), lesion: several types, types named in the paper, dosed 76 weeks, study length 76 weeks): 187 mg/kg/day
TD50 (mouse, strain B6AKF1, males, oral dosing, site: lung, lesion: adenoma, dosed 76 weeks, study length 76 weeks): 414 mg/kg/day
TD50 (mouse, strain B6AKF1, males, oral dosing, site: lung, lesion: carcinoma, dosed 76 weeks, study length 76 weeks): 467 mg/kg/day
TD50 (mouse, strain B6C3F1, males, oral dosing, site: all sites, lesion: reticulum-cell sarcoma, dosed 76 weeks, study length 76 weeks): 82.1 mg/kg/day
TD50 (mouse, strain B6C3F1, males, oral dosing, site: any site (literature study), lesion: several types, types named in the paper, dosed 76 weeks, study length 76 weeks): 38.5 mg/kg/day
TD50 (mouse, strain B6C3F1, males, oral dosing, site: liver, lesion: hepatoma, dosed 76 weeks, study length 76 weeks): 147 mg/kg/day
TD50 (mouse, strain B6C3F1, males, oral dosing, site: lung, lesion: adenoma, dosed 76 weeks, study length 76 weeks): 467 mg/kg/day

CNC(=O)c1c(N(C)N=O)ncn1C
TD50 (rat, strain BD IX, both sexes, in drinking water, site: nasal cavity, olfactory epithelium, lesion: neuroepithelioma, dosed 73 weeks, study length 79 weeks): 1.03 mg/kg/day
TD50 (rat, strain BD IX, both sexes, in drinking water, site: nasal cavity, lesion: several types, types named in the paper, dosed 73 weeks, study length 79 weeks): 1 mg/kg/day
TD50 (rat, strain BD IX, both sexes, in drinking water, site: nasal cavity, lesion: squamous-cell carcinoma, dosed 73 weeks, study length 79 weeks): 5.56 mg/kg/day

CC(C)CCC[C@@H](C)[C@H]1CC[C@H]2[C@@H]3CC=C4C[C@@H](OC(=O)Cc5ccc(N(CCCl)CCCl)cc5)CC[C@]4(C)[C@H]3CC[C@]12C
TD50 (mouse, strain B6C3F1, females, by gavage, site: all sites + lung + myocardium, lesion: leukemia + lymphoma + alveolar/bronchiolar adenoma + alveolar/bronchiolar carcinoma + sarcoma, NOS, dosed 70 weeks, study length 83 weeks): 0.211 mg/kg/day
TD50 (mouse, strain B6C3F1, females, by gavage, site: all sites, lesion: hemangiosarcoma, dosed 70 weeks, study length 83 weeks): 1.52 mg/kg/day
TD50 (mouse, strain B6C3F1, females, by gavage, site: all sites, lesion: leukemia + lymphoma, dosed 70 weeks, study length 82 weeks): 2.07 mg/kg/day
TD50 (mouse, strain B6C3F1, females, by gavage, site: all sites, lesion: leukemia + lymphoma, dosed 70 weeks, study length 83 weeks): 0.652 mg/kg/day
TD50 (mouse, strain B6C3F1, females, by gavage, site: any site (literature study), lesion: several types, types named in the paper, dosed 70 weeks, study length 83 weeks): 0.183 mg/kg/day
TD50 (mouse, strain B6C3F1, females, by gavage, site: lung, lesion: alveolar/bronchiolar adenoma + alveolar/bronchiolar carcinoma, dosed 70 weeks, study length 83 weeks): 0.416 mg/kg/day
TD50 (mouse, strain B6C3F1, females, by gavage, site: myocardium, lesion: sarcoma, NOS, dosed 70 weeks, study length 83 weeks): 0.951 mg/kg/day
TD50 (mouse, strain B6C3F1, females, by gavage, site: ovary, lesion: tubular adenoma, dosed 70 weeks, study length 83 weeks): 0.912 mg/kg/day
TD50 (mouse, strain B6C3F1, males, by gavage, site: all sites + lung + myocardium, lesion: leukemia + lymphoma + alveolar/bronchiolar adenoma + alveolar/bronchiolar carcinoma + sarcoma, NOS, dosed 64 weeks, study length 81 weeks): 0.757 mg/kg/day
TD50 (mouse, strain B6C3F1, males, by gavage, site: all sites, lesion: hemangiosarcoma, dosed 64 weeks, study length 81 weeks): 6.15 mg/kg/day
TD50 (mouse, strain B6C3F1, males, by gavage, site: all sites, lesion: leukemia + lymphoma, dosed 64 weeks, study length 81 weeks): 2.13 mg/kg/day and 1.89 mg/kg/day
TD50 (mouse, strain B6C3F1, males, by gavage, site: any site (literature study), lesion: several types, types named in the paper, dosed 64 weeks, study length 81 weeks): 0.728 mg/kg/day
TD50 (mouse, strain B6C3F1, males, by gavage, site: liver, lesion: hepatocellular adenoma + hepatocellular carcinoma + neoplastic nodule, dosed 64 weeks, study length 81 weeks): 32.9 mg/kg/day
TD50 (mouse, strain B6C3F1, males, by gavage, site: lung, lesion: alveolar/bronchiolar adenoma + alveolar/bronchiolar carcinoma, dosed 64 weeks, study length 81 weeks): 1.19 mg/kg/day
TD50 (mouse, strain B6C3F1, males, by gavage, site: lung, lesion: alveolar/bronchiolar carcinoma, dosed 64 weeks, study length 81 weeks): 2.05 mg/kg/day
TD50 (mouse, strain B6C3F1, males, by gavage, site: myocardium, lesion: sarcoma, NOS, dosed 64 weeks, study length 81 weeks): 3.87 mg/kg/day and 6.28 mg/kg/day
TD50 (rat, strain Sprague-Dawley, females, by gavage, site: any site (literature study), lesion: several types, types named in the paper, dosed 52 weeks, study length 85 weeks): 0.271 mg/kg/day
TD50 (rat, strain Sprague-Dawley, females, by gavage, site: mammary gland, lesion: adenocarcinoma, NOS, dosed 52 weeks, study length 85 weeks): 0.523 mg/kg/day
TD50 (rat, strain Sprague-Dawley, males, by gavage, site: all sites, lesion: leukemia + lymphoma, dosed 52 weeks, study length 84 weeks): 2.73 mg/kg/day (inactive)
TD50 (rat, strain Sprague-Dawley, males, by gavage, site: any site (literature study), lesion: several types, types named in the paper, dosed 52 weeks, study length 84 weeks): 0.481 mg/kg/day (inactive)
